Assays:
System xc− [1] = target: T1, System xc− (Homo sapiens, UniProt Q9UPY5); assay: 14C-cystine uptake in human glial cells from brain astrocytoma (1321N1); type: cell-based; conditions: 1321N1 cells
T1 construct: in vitro culture system of human glial cells from brain astrocytoma (1321N1); endogenous in cells; host or cells: 1321N1 human astrocytoma cells
T1 sequence (Q9UPY5 1-501): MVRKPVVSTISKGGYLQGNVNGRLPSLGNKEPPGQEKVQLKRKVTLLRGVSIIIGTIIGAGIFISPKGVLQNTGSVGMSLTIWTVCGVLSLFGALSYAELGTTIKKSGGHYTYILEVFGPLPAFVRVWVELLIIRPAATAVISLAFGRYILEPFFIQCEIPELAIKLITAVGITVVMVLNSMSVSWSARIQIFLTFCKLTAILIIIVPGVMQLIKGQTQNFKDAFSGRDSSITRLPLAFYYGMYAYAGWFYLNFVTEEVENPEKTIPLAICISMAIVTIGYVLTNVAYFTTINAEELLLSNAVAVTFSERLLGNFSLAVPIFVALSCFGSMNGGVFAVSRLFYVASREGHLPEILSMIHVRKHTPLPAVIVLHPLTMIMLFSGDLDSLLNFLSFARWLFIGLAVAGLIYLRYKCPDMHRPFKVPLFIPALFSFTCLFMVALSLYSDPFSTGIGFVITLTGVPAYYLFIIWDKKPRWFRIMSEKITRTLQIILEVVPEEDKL
T1 sequence (P08195 1-529 partner): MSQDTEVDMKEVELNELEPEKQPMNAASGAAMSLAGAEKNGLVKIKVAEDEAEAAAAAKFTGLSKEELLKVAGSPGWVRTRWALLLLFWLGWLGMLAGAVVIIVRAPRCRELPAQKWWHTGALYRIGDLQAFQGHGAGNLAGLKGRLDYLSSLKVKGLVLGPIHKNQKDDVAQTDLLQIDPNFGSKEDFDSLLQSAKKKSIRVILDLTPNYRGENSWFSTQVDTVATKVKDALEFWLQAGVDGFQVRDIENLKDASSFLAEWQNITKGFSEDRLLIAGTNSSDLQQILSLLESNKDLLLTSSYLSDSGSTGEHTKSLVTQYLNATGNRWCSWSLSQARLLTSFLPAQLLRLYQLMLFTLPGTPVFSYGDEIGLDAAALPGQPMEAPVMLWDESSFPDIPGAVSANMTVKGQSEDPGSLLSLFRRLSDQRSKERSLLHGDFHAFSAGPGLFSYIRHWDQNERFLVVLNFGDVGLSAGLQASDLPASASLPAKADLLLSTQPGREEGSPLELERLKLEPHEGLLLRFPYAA
Method: The goal of these experiments was to determine ^14C-cystine uptake.
The screening of compounds was performed using an in vitro culture system of human glial cells from brain astrocytoma (1321N1). Cells were plated on 24 well plates coated with poly-D-lysine and laminin and grown in a balanced salt solution supplemented with 5% heat inactivated horse serum, 5% fetal bovine serum, 2 mM glutamine and glucose (total 21 mM). Cultures were maintained in humidified 5% CO2 incubators at 37° C. for 3-4 days before experiments were performed, at this time the cultures has formed a single confluent layer. For experiments, cultures were washed 3 times into a Na-free HEPES and HCO3^− buffered balanced salt solution. After 1 hour, the test compounds are added. Following a three hour incubation, ^14C-cystine (0.025 mCi/mL) was then added for 20 minutes. Following the ^14C-cystine exposure, cultures were washed 3 times with ice cold HEPES buffered saline solution and dissolved in 250 μl sodium dodecyl sulfate (0.1%). An aliquot (200 μl) was removed and added to scintillation fluid for counting. Values were normalized to ^14C-cystine uptake in untreated controls on the same experimental plate.

System xc− [2] = target: T1, System xc−; assay: 3H-glutamate release from human glial cells from brain astrocytoma (1321N1); type: cell-based; conditions: 1321N1 cells
Method: This assay also uses the cell culture system of human glial cells from brain astrocytoma (1321N1) described above. Initially, cells are washed with HBBSS, and ^3H-glutamate is added (PerkinElmer: 1 mCi/mL stock solution is diluted (30 μL+500 HBBSS) and 10 μL of diluted radiolabel is added to each well). Following a 1 hour incubation to load the cells with the labeled glutamate, the cells are washed again with HBBSS, and the drug is added. At 30, 90, and 180 minutes, 50 μL of extracellular media is sampled from each well and is measured using a Beckman LS 6500 scintillation counter.

[3] = test system: mixed cortical cell cultures containing glial and neuronal cells; assay: In vitro thiol experiment: intracellular cysteine levels; type: cell-based, mice; conditions: 30 minutes; for intracellular cysteine concentration: raw concentration in collected samples
Method: To further resolve by what process the inhibition of ^14C-cystine uptake is occurring intracellular cysteine levels were determined.
Mixed cortical cell cultures containing glial and neuronal cells were prepared from fetal (15-16 day gestation) mice as previously described. (Lobner D, “Comparison of the LDH and MTT assays for quantifying cell death: validity for neuronal apoptosis?,” J. Neurosci. Methods, 96(2): 147-152 (Mar. 15, 2000)). Dissociated cortical cells were plated on 24-well plates coated with poly-D-lysine and laminin in Eagles' Minimal Essential Medium (MEM, Earle's salts, supplied glutamine-free) supplemented with 5% heat-inactivated horse serum, 5% fetal bovine serum, 2 mM glutamine and glucose (total 21 mM). Cultures were maintained in humidified 5% CO2 incubators at 37° C. Mice were handled in accordance with a protocol approved by our institutional animal care committee and in compliance with the Public Health service Policy on Humane Care and Use of Laboratory Animals.
Mixed cortical cell cultures, 14 days in vitro (this allows for a confluent layer of astrocytes to form and the neurons to generate a complex network of axons and dendrites), were washed into bicarbonate buffered salt solution. After 1 hour, 3, 10, 30, 100 μM of Pro-4047 or Pro-4051 was added and the cells were incubated for 30 or 90 minutes, after which the cells were thoroughly washed and the collected in 250 μL of aqueous mobile phase (50 mM citric acid, 10 mM octanesulfonic acid, pH 2.8) was added, after 10 minutes at 37° C. the cells were scraped from the plates and transferred to 1.5 mL tubes for analysis.
Samples were then sonicated with a Fisher Scientific 60 Sonic Dismembrator. One fraction of this homogenate was analyzed with the Pierce BCA (bicinchoninic acid) method to determine protein concentration. The other fraction was filtered using 3 K molecular weight cutoff, polyethersulfone centrifugal protein filters, and analyzed for thiol content using HPLC (ALF-115 column, 150×1.0 mm, 3 μm C18 [Pro-2023 analysis utilized a Phenomenex Kinetex 2.6 μM, C18, 100 A, 150×2.1 mm and Pro-4047 analysis utilized a Phenomenex Kinetex X-B, C18, 100 A, 2.6 μm, 150×4.4 mm]; mobile phase: 50 mM citric acid, 10 mM octanesulfonic acid, 2% acetonitrile, pH 2.8, 50 μL/min flow rate [Pro-2023 analysis utilized a 100 μL/min flow rate and Pro-4047 analysis utilized 1% acetonitrile and 0.4 mL/min flow rate] with electrochemical detection (Decade II, Au working electrode, Flex Cell HyREF, 0.55V, Antec Leyden, Netherlands [Pro-4047 analysis utilized a Magic Diamond working electrode and 1.8V]).
When the intracellular thiol assay was initiated, all data was normalized to protein concentration. […] The data presented herein represents the raw cysteine concentrations in the collected samples. […] Pro-4006 at 10 μM increases intracellular cysteine concentration to 0.07 μM at 30 minutes (approximately 3.5 times that of the control; FIG. 11). […] Pro-4047 at 300 μM increases intracellular cysteine concentration to 0.74 μM at 90 minutes (approximately 4.9 times that of the control; FIG. 13). […] Thus, based on the 3 in vitro experiments it is apparent that Pro-2023, Pro-4006, Pro-4011, Pro-4047, Pro-4051 and Pro-4051a behave as effective cysteine prodrugs.

Rats = assay: Elevated-plus maze; type: in vivo; conditions: 10 mg/kg PO
Method: Rats were tested in a standard elevated plus maze; testing occurred in a dimly illuminated room using only two lights mounted over the maze. Animals were allowed to habituate to the room for at least one hour prior to treatment. One hour prior to testing, rats received a compound of the present invention (0-30 mg/kg, P.O.). For testing, the rat was placed in the elevated plus maze for five minutes, alternating the starting position between facing an open arm and facing a closed arm. The session was recorded and an observer blind to treatment recorded the number of explorations, entries and time spent in the open arm. Explorations were defined as the rat placing two feet into an open arm without fully entering said arm. Entries were defined as the rat placing all four feet in an open arm. Time of entry in the open arm was recorded from the time the rat placed four feet in the open arm until two of the rats' feet entered the open square.

Row | decrease in 14C-cystine uptake (System xc− [1]; 30 μM (most effective concentration), three hour incubation) | increase in 3H-glutamate release (System xc− [2]; 30 μM, at 30 minutes) | increase in 14C-cystine uptake (System xc− [1]; 100 μM (most effective concentration), three hour incubation) | increase in 3H-glutamate release (System xc− [2]; 100 μM, at 3 hours) | inhibition of 14C-cystine uptake (in words) (System xc− [1]; 3 hour incubation) | increase in 3H-glutamate release (System xc− [2]; 1000 μM, at 30 minutes) | SMILES | intracellular cysteine, times that of the control ([3]; 10 μM compound) | intracellular cysteine concentration ([3]; 10 μM compound) | intracellular cysteine, times that of the control ([3]; 100 μM compound) | intracellular cysteine concentration ([3]; 100 μM compound) | increase of time on the open arms over control (Rats) | time spent on the open arms (Rats; one hour prior to testing, five minute session)
1 | approximately 45% | 35% | – | – | – | – | CC(=O)N[C@@H](CSC(C)(C)c1ccccc1)C(N)=O [Pro-4006, (2R)-2-Acetamido-3-[(2-phenylpropan-2-yl)sulfanyl]propanamide] | approximately 3.5 times | 0.07 µM | – | – | – | –
2 | – | – | approximately 75% | 75% | – | – | O=C(SC[C@H]1C(=O)NCC(=O)N1Cc1ccccc1)c1ccccc1 [Pro-4011, (6R)-6-[(benzoylsulfanyl)methyl]-1-benzylpiperazine-2,5-dione] | approximately 1.16 times | 0.138 µM | – | – | – | –
3 | – | – | – | – | did not produce a substantial inhibition | approximately 180% | CC(=O)N[C@@H](CSC(=O)c1ccc(C)cc1)C(N)=O [Pro-4051a, (2R)-2-acetamido-3-(4-methylbenzoylsulfanyl)propanamide] | – | – | approximately 3 times | 0.21 µM | not a significant increase over control | around 22 seconds
